In PubChem BioAssay (NCI):
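48-hour exposure; five concentrations; linearly interpolated endpoints. TGI denotes the concentration required for complete inhibition of growth.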 Where a SMILES comes first, the peptide text is derived from it. The star is where a group is joined. Cbz = O=C(OCc1ccccc1)*; Bn = c1ccc(C*)cc1

Columns and labels:
Assay in all cases: NCI-60 cell line screen, 48 h
786-0 renal = tested on: 786-0 renal
A498 renal = tested on: A498 renal
A549 NSCLC = tested on: A549 NSCLC
ACHN renal = tested on: ACHN renal
CAKI-1 renal = tested on: CAKI-1 renal
CCRF-CEM leukemia = tested on: CCRF-CEM leukemia
DLD-1 colon = tested on: DLD-1 colon
DMS 114 small cell lung = tested on: DMS 114 small cell lung
EKVX NSCLC = tested on: EKVX NSCLC
HCC-2998 colon = tested on: HCC-2998 colon
HCT-116 colon = tested on: HCT-116 colon
HCT-15 colon = tested on: HCT-15 colon
HL-60(TB) leukemia = tested on: HL-60(TB) leukemia
HOP-92 NSCLC = tested on: HOP-92 NSCLC
HT29 colon = tested on: HT29 colon
IGROV1 ovarian = tested on: IGROV1 ovarian
K-562 leukemia = tested on: K-562 leukemia
KM12 colon = tested on: KM12 colon
KM20L2 colon = tested on: KM20L2 colon
LOX IMVI melanoma = tested on: LOX IMVI melanoma
M14 melanoma = tested on: M14 melanoma
MALME-3M melanoma = tested on: MALME-3M melanoma
MOLT-4 leukemia = tested on: MOLT-4 leukemia
NCI-H226 lung = tested on: NCI-H226 lung
NCI-H23 lung = tested on: NCI-H23 lung
NCI-H460 lung = tested on: NCI-H460 lung
OVCAR-4 ovarian = tested on: OVCAR-4 ovarian
OVCAR-5 ovarian = tested on: OVCAR-5 ovarian
OVCAR-8 ovarian = tested on: OVCAR-8 ovarian
RPMI-8226 leukemia = tested on: RPMI-8226 leukemia
RXF 393 renal = tested on: RXF 393 renal
SF-268 CNS = tested on: SF-268 CNS
SF-295 CNS = tested on: SF-295 CNS
SF-539 CNS = tested on: SF-539 CNS
SK-MEL-2 melanoma = tested on: SK-MEL-2 melanoma
SK-MEL-28 melanoma = tested on: SK-MEL-28 melanoma
SK-MEL-5 melanoma = tested on: SK-MEL-5 melanoma
SK-OV-3 ovarian = tested on: SK-OV-3 ovarian
SN12C renal = tested on: SN12C renal
SNB-19 CNS = tested on: SNB-19 CNS
SNB-75 CNS = tested on: SNB-75 CNS
SNB-78 CNS = tested on: SNB-78 CNS
SR leukemia = tested on: SR leukemia
SW-620 colon = tested on: SW-620 colon
TK-10 renal = tested on: TK-10 renal
U251 CNS = tested on: U251 CNS
UACC-257 melanoma = tested on: UACC-257 melanoma
UACC-62 melanoma = tested on: UACC-62 melanoma
UO-31 renal = tested on: UO-31 renal
BT-549 breast = tested on: BT-549 breast
COLO 205 colon = tested on: COLO 205 colon
DU-145 prostate = tested on: DU-145 prostate
HOP-62 NSCLC = tested on: HOP-62 NSCLC
HS 578T breast = tested on: HS 578T breast
MCF7 breast = tested on: MCF7 breast
MDA-MB-231 breast = tested on: MDA-MB-231 breast
MDA-MB-435 = tested on: MDA-MB-435
MDA-N = tested on: MDA-N
NCI-H522 lung = tested on: NCI-H522 lung
NCI/ADR-RES ovarian = tested on: NCI/ADR-RES ovarian
OVCAR-3 ovarian = tested on: OVCAR-3 ovarian
PC-3 prostate = tested on: PC-3 prostate
T-47D breast = tested on: T-47D breast

CCOC(=O)c1[nH]c2cc(OC)c(OC)cc2c1CN(C)C
TGI (786-0 renal): > 100 µM | TGI (A498 renal): > 100 µM | TGI (A549 NSCLC): > 100 µM | TGI (ACHN renal): > 100 µM | TGI (CAKI-1 renal): > 100 µM | TGI (CCRF-CEM leukemia): > 100 µM | TGI (DLD-1 colon): > 100 µM | TGI (DMS 114 small cell lung): > 100 µM | TGI (EKVX NSCLC): > 100 µM | TGI (HCC-2998 colon): > 100 µM | TGI (HCT-116 colon): > 100 µM | TGI (HCT-15 colon): > 100 µM | TGI (HL-60(TB) leukemia): > 100 µM | TGI (HOP-92 NSCLC): > 100 µM | TGI (HT29 colon): > 100 µM | TGI (IGROV1 ovarian): > 100 µM | TGI (K-562 leukemia): > 100 µM | TGI (KM12 colon): > 100 µM | TGI (KM20L2 colon): > 100 µM | TGI (LOX IMVI melanoma): > 100 µM | TGI (M14 melanoma): > 100 µM | TGI (MALME-3M melanoma): > 100 µM | TGI (MOLT-4 leukemia): > 100 µM | TGI (NCI-H226 lung): > 100 µM | TGI (NCI-H23 lung): > 100 µM | TGI (NCI-H460 lung): > 100 µM | TGI (OVCAR-4 ovarian): > 100 µM | TGI (OVCAR-5 ovarian): > 100 µM | TGI (OVCAR-8 ovarian): > 100 µM | TGI (RPMI-8226 leukemia): > 100 µM | TGI (RXF 393 renal): > 100 µM | TGI (SF-268 CNS): > 100 µM | TGI (SF-295 CNS): > 100 µM | TGI (SF-539 CNS): > 100 µM | TGI (SK-MEL-2 melanoma): > 100 µM | TGI (SK-MEL-28 melanoma): > 100 µM | TGI (SK-MEL-5 melanoma): > 100 µM | TGI (SK-OV-3 ovarian): > 100 µM | TGI (SN12C renal): > 100 µM | TGI (SNB-19 CNS): > 100 µM | TGI (SNB-75 CNS): > 100 µM | TGI (SNB-78 CNS): > 100 µM | TGI (SR leukemia): > 100 µM | TGI (SW-620 colon): > 100 µM | TGI (TK-10 renal): > 100 µM | TGI (U251 CNS): > 100 µM | TGI (UACC-257 melanoma): > 100 µM | TGI (UACC-62 melanoma): > 100 µM | TGI (UO-31 renal): > 100 µM

COC(=O)C(Cc1ccc(O)cc1)NC(=O)C(COCc1ccccc1)NC(=O)OCc1ccccc1 (stereo unspecified) (Cbz-Ser(Bn)-Tyr-OMe; configuration not given here)
TGI (A498 renal): 58 µM | TGI (A549 NSCLC): 35.7 µM | TGI (ACHN renal): 31.2 µM | TGI (BT-549 breast): > 100 µM | TGI (CAKI-1 renal): 36.4 µM | TGI (CCRF-CEM leukemia): > 100 µM | TGI (COLO 205 colon): 31.1 µM | TGI (DU-145 prostate): 31.8 µM | TGI (EKVX NSCLC): 43.8 µM | TGI (HCC-2998 colon): 17.3 µM | TGI (HCT-116 colon): 35.7 µM | TGI (HCT-15 colon): 33.6 µM | TGI (HL-60(TB) leukemia): > 100 µM | TGI (HOP-62 NSCLC): 33.6 µM | TGI (HOP-92 NSCLC): 60.8 µM | TGI (HS 578T breast): 53 µM | TGI (HT29 colon): 28.6 µM | TGI (IGROV1 ovarian): 32.3 µM | TGI (K-562 leukemia): > 100 µM | TGI (KM12 colon): 35 µM | TGI (LOX IMVI melanoma): 41 µM | TGI (M14 melanoma): 33.5 µM | TGI (MALME-3M melanoma): 39.6 µM | TGI (MCF7 breast): 36.6 µM | TGI (MDA-MB-231 breast): 33.1 µM | TGI (MDA-MB-435): 34.1 µM | TGI (MDA-N): 31.4 µM | TGI (MOLT-4 leukemia): > 100 µM | TGI (NCI-H226 lung): 36.9 µM | TGI (NCI-H23 lung): 42.8 µM | TGI (NCI-H460 lung): 14.3 µM | TGI (NCI-H522 lung): 37.3 µM | TGI (NCI/ADR-RES ovarian): 38.8 µM | TGI (OVCAR-3 ovarian): 31.8 µM | TGI (OVCAR-4 ovarian): 34 µM | TGI (OVCAR-5 ovarian): 36.7 µM | TGI (OVCAR-8 ovarian): 31.8 µM | TGI (PC-3 prostate): 33.3 µM | TGI (RPMI-8226 leukemia): > 100 µM | TGI (RXF 393 renal): 33.9 µM | TGI (SF-268 CNS): 31.9 µM | TGI (SF-295 CNS): 35.3 µM | TGI (SF-539 CNS): 34.2 µM | TGI (SK-MEL-2 melanoma): 40.8 µM | TGI (SK-MEL-28 melanoma): 35.9 µM | TGI (SK-MEL-5 melanoma): 31.4 µM | TGI (SK-OV-3 ovarian): 31.4 µM | TGI (SN12C renal): 32.7 µM | TGI (SNB-19 CNS): 31.2 µM | TGI (SNB-75 CNS): 29.9 µM | TGI (SR leukemia): > 100 µM | TGI (SW-620 colon): 32.9 µM | TGI (T-47D breast): 39.5 µM | TGI (TK-10 renal): 35.2 µM | TGI (U251 CNS): 33.5 µM | TGI (UACC-257 melanoma): 39.5 µM | TGI (UACC-62 melanoma): 31.1 µM | TGI (UO-31 renal): 36.5 µM

CC/C(Cl)=N\OC(=O)Nc1ccc(OC)c(C)c1
TGI (786-0 renal): 36.8 µM | TGI (A498 renal): 61.2 µM | TGI (A549 NSCLC): > 71.4 µM | TGI (ACHN renal): 21.5 µM | TGI (BT-549 breast): 34.9 µM | TGI (CAKI-1 renal): 1.84 µM | TGI (CCRF-CEM leukemia): > 38.8 µM | TGI (COLO 205 colon): 31.4 µM | TGI (DU-145 prostate): > 100 µM | TGI (EKVX NSCLC): 10.1 µM | TGI (HCC-2998 colon): 43.2 µM | TGI (HCT-116 colon): 29.6 µM | TGI (HCT-15 colon): 34.5 µM | TGI (HL-60(TB) leukemia): > 44.5 µM | TGI (HOP-62 NSCLC): > 82.5 µM | TGI (HOP-92 NSCLC): 5.69 µM | TGI (HS 578T breast): 59.2 µM | TGI (HT29 colon): 41.2 µM | TGI (IGROV1 ovarian): 39.1 µM | TGI (K-562 leukemia): > 91.2 µM | TGI (KM12 colon): > 60 µM | TGI (LOX IMVI melanoma): 31.1 µM | TGI (M14 melanoma): 44.1 µM | TGI (MALME-3M melanoma): 26.6 µM | TGI (MCF7 breast): > 64.3 µM | TGI (MDA-MB-231 breast): > 88.6 µM | TGI (MDA-MB-435): > 100 µM | TGI (MDA-N): 41 µM | TGI (MOLT-4 leukemia): 47 µM | TGI (NCI-H226 lung): 70.4 µM | TGI (NCI-H23 lung): 36.5 µM | TGI (NCI-H460 lung): > 100 µM | TGI (NCI-H522 lung): 4.18 µM | TGI (NCI/ADR-RES ovarian): 37.5 µM | TGI (OVCAR-3 ovarian): 50 µM | TGI (OVCAR-4 ovarian): 36.5 µM | TGI (OVCAR-5 ovarian): 71.6 µM | TGI (OVCAR-8 ovarian): 39.2 µM | TGI (PC-3 prostate): > 92.6 µM | TGI (RPMI-8226 leukemia): > 55.8 µM | TGI (RXF 393 renal): 31 µM | TGI (SF-268 CNS): > 77.1 µM | TGI (SF-295 CNS): > 100 µM | TGI (SF-539 CNS): 42 µM | TGI (SK-MEL-2 melanoma): 49.9 µM | TGI (SK-MEL-28 melanoma): 62 µM | TGI (SK-MEL-5 melanoma): 39.1 µM | TGI (SK-OV-3 ovarian): > 100 µM | TGI (SN12C renal): 32.4 µM | TGI (SNB-19 CNS): > 100 µM | TGI (SNB-75 CNS): > 100 µM | TGI (SR leukemia): 26.9 µM | TGI (SW-620 colon): > 68.8 µM | TGI (T-47D breast): 39.1 µM | TGI (TK-10 renal): 41.7 µM | TGI (U251 CNS): > 100 µM | TGI (UACC-257 melanoma): 37 µM | TGI (UACC-62 melanoma): 28.9 µM | TGI (UO-31 renal): 35.5 µM
